US20220196636A1, “GRID OF RESPONSES INDICATING DRUG SENSITIVITY” (The Johns Hopkins University, priority 2019, published 2022)

Experiments:
Type in all cases: cell-based, human
[1] = test system: engineered heart slices (EHS) of hiPSC-CMs; test: GRIDS assay (pace-capture and spontaneous activity by optical mapping), EHS
Description: (§1) Each EHS was placed in Tyrode's solution and stained with 10 μM di-4-ANEPPS for 10 min at 37° C. The EHS was rinsed several times in a dish with warm Tyrode's solution, and then immersed in Tyrode's solution containing 10 μM blebbistatin to suppress contraction. The dish was placed on a 37° C. heated stage for the duration of the experiment. At least 5 min after adding blebbistatin, the EHS was stimulated with a point electrode and optically mapped using a CMOS camera (MiCAM Ultima-L, SciMedia). The EHS was paced by 5 ms monophasic rectangular pulses at stepwise increasing rates starting at 0.5 Hz. For some samples, E-4031, chromanol 293B, nifedipine, Bay K 8644, BaCl2, or cromakalim was added for 7 min prior to mapping. Mapping data were analyzed using custom MATLAB scripts (details provided in Supplemental Information). AP durations at 30% and 80% repolarization (APD30 and APD80) were calculated from the optical voltage signal. For drug studies, APD and conduction velocity (CV) measurements at each concentration were plotted as a percentage of APD and CV measured at baseline, with no drug present.
(§2) To test the responsiveness of EHS to ion channel modulators, an assay referred to herein as “GRIDS” (grid of responses indicating drug sensitivity) was developed that characterizes the ability of a cardiac preparation to respond to pacing when exposed to a range of drug concentrations. This assay was used to compare EHS to age-matched monolayer cultures. APs of EHS and monolayers were evaluated at each drug concentration in the absence of pacing and when subjected to electrical stimulation at PCLs ranging from 2000 ms to 500 ms. By incorporating a range of pacing rates, GRIDS manifests the distinct sensitivities of different ion currents (Ravens and Wettwer, 1998) and their rate dependencies, and provides a “fingerprint” of drug sensitivity. Several types of responses were observed: no spontaneous activity (FIG. 6A,i), spontaneously generated APs when no pacing was applied (FIG. 6A,ii), extra APs in between pacing stimuli (FIG. 6A, iii), one AP generated for each pacing stimulus—i.e., 1:1 pace-capture (FIG. 6A, iv), and failure to maintain 1:1 pace-capture (lost beats) (FIG. 6A,v).
(§3) EHS were stained with 10 μM of the voltage-sensitive dye di-4-ANEPPS (Sigma-Aldrich Corp.) in Tyrode's solution for 10 minutes at 37° C. Afterwards, EHS were rinsed twice with Tyrode's and placed in a 35-mm dish filled with Tyrode's and 10 μM of the contraction inhibitor blebbistatin (Sigma-Aldrich Corp.). This dish was set on a stage heated to 37° C. and allowed to equilibrate for at least 5 minutes. Samples were point paced with at least 30 stimulus pulses at a range of cycle lengths, starting from 2000 ms and decreasing until the they lost capture. EHS were optically mapped during pacing using a 100×100 pixel CMOS camera (MiCAM Ultima-L, SciMedia, Costa Mesa, Calif.).
(§4) During drug studies, recordings at a range of pacing rates were taken at baseline (prior to the addition of drug) before replacing the solution in the dish with Tyrode's supplemented with blebbistatin and the lowest dose of drug studied. The sample was paced at the same range of rates and mapped 7 minutes after the addition of drug. Afterwards, the bath solution was replaced with Tyrode's with blebbistatin and the next lowest drug dose and the procedure repeated. This method was applied for all doses of each drug and, except where noted in the figures, only one drug was tested per sample. In these studies, we superfused EHS or monolayers with the following drugs: E-4031 (Tocris Bioscience), BaCl2 (Sigma-Aldrich Corp.), Chromanol 293B (Tocris Bioscience), Nifedipine (Tocris Bioscience), Bay K 8644 (Tocris Bioscience), and Cromakalim (Sigma-Aldrich Corp.).
(§5) Optical mapping data was analyzed using custom MATLAB scripts. […]

hiPSC-CM monolayers [2] = test: GRIDS assay (pace-capture and spontaneous activity by optical mapping), monolayers
Description: as §1, §2, §3, §4, §5

[3] = test system: engineered heart slices (EHS) of hiPSC-CMs; test: Optical mapping of action potential duration and conduction velocity, EHS; conditions: for change in APD80 compared to baseline, d201 EHS / change in conduction velocity compared to baseline, d201 EHS: paced at 1900 ms, n=4
Description: as §1, §3, §4
(§6) Optical mapping data was analyzed using custom MATLAB scripts. Recordings at each pixel were de-noised using a previously described method (Little and Jones, 2010) to regulate total signal variance and convolved with a 5×5 spatial Gaussian filter. Activation times were defined as the maximum of the derivative of membrane potential (dV/dt), which was calculated as previously described (Chartrand, 2011). Histograms of local conduction velocities for each EHS were fitted to a Gaussian curve and the mean of the curve was defined as the average conduction velocity (CV). To determine longitudinal and transverse CVs, a bimodal Gaussian curve was fitted to the local CVs. Action potential durations at 30 and 80 percent repolarization (APD30 and APD80) were determined for all local traces over the recording region for each EHS and fit with Gaussian curves to determine the mean value for each EHS, as described for CV measurements. For drug studies, average APD and CV measurements for each dose were normalized by average APD and CV measurements at baseline (without the drug).

hiPSC-CM monolayers [4] = test: Optical mapping of action potential duration and conduction velocity, monolayers
Description: as §1, §3, §4, §6

[5] = test system: engineered heart slices (EHS) of hiPSC-CMs; test: Contraction measurements of EHS (change in EHS area during pacing)
Description: WT d24-78 EHS were placed in a 35-mm tissue culture mm dish filled with Tyrode's solution and maintained at 31±0.1° C. for the duration of the experiment. A section of each EHS was detached from the edge of the coverslip so that it could move freely. Each EHS was paced at 1 Hz, 1.5 Hz, and 2 Hz while the free region was imaged with a CCD camera. A custom MATLAB script was used to segment the image and calculate the change in EHS area over time, which was used as a measure of contraction.
Tyrode's solution was prepared by combining 1.8 mM CaCl2, 5 mM glucose, 5 mM HEPES, 1 mM MgCl2, 5.4 mM KCl, 135 mM NaCl, and 0.33 mM NaH2PO4 in ddH2O and adding NaOH to raise the pH to 7.4 (all chemicals from Sigma-Aldrich Corp.). EHS were placed in a 35-mm dish filled with Tyrode's solution and set on a stage heated to 31±0.1° C. (Warner Instruments, Hamden, Conn.). A section of each EHS was unhooked and allowed to move freely throughout the duration of the experiment. The EHS were allowed to equilibrate in Tyrode's for 5 minutes before the start of pacing with a point electrode. Each sample was paced for 1 minute at each of 3 cycle lengths (1000 ms, 666 ms, 500 ms), while the freely moving region was kept approximately vertical in the field of view and imaged at 4× magnification using a CCD camera (Swiftcam, Swift, Schertz, Tex.) at a rate of 14-17 fps with 320×256 pixel resolution. Samples also were imaged during pacing at 666 ms after the application of 1 μM isoproterenol (Sigma-Aldrich Corp.) for 2 minutes and after washout of the drug for 2 minutes. A pacing cycle length shorter than 1000 ms was applied in the presence of isoproterenol to overcome the increase in spontaneous rate in response to the drug. […] From this, the area of EHS was calculated in each image. The change in area from a fully relaxed state (reference frame, designated as 100% EHS area) was determined for each frame in the time series. […]

monolayers of hiPSC-CMs = test: GRIDS analysis applied to video-based contraction data, monolayers; conditions: n=6
Description: GRIDS analysis was applied to contraction data collected from monolayers of hiPSC-CMs. Each monolayer (cultured on a plastic coverslip) was placed in a 35-mm dish filled with cell culture medium and set on the stage of a microscope (LS720, Etaluma) fitted within a cell culture incubator. Monolayers were superfused with increasing concentrations of E-4031 (FIG. 15) or isoproterenol (FIG. 16), ranging from 0 to 10 μM, and paced at decreasing cycle lengths (increasing rates), ranging from 2000 ms to 500 ms, using a field electrode. At each drug dose and paced cycle length, a 30-second video of the contracting cells was recorded at a rate of 20-30 frames per second. The cellular contraction was quantified by subtracting one reference frame of video from all other frames, summing the pixels in each frame after subtraction, plotting the summed signal over time, and detecting the peaks in the signal.

[6] = BaCl2 up to 150 μM, PCL 1000 ms, concentration-dependent
[7] = additional 1 μM Bay K 8644 after 1 μM cromakalim
[8] = chromanol 293B, all concentrations tested
[9] = chromanol 293B 1 μM to 60 μM, PCL 1000 ms
[10] = E-4031 50 nM to 10 μM, PCL 1500 ms, concentration-dependent

[Ba+2].[Cl-].[Cl-] [BaCl2]
pace-capture (GRIDS), EHS ([1]; 1 mM BaCl2, 500 ms PCL): all of the EHS tested lost capture
sensitivity (GRIDS), EHS compared with monolayers ([1]; BaCl2): less sensitive to BaCl2 than monolayers
spontaneous rate, EHS ([1]; BaCl2, no pacing): increased in a concentration-dependent manner
pace-capture (GRIDS), EHS ([1]; all concentrations of BaCl2): could be overdrive paced at 700 ms and 1000 ms PCL for all concentrations
pace-capture (GRIDS), monolayers (hiPSC-CM monolayers [2]; 500 μM BaCl2): could be partially pace-captured only at CLs of 1000 ms and less
spontaneous beating rate, monolayers (hiPSC-CM monolayers [2]; 500 μM BaCl2): up to 1 Hz
pace-capture (GRIDS), monolayers (hiPSC-CM monolayers [2]; 1 mM BaCl2): only a small fraction could be partially pace-captured at a CL of 500 ms
spontaneous beating rate, nearly all monolayers (hiPSC-CM monolayers [2]; 1 mM BaCl2): > 2 Hz
spontaneous rate, monolayers (hiPSC-CM monolayers [2]; BaCl2, no pacing, effect greater in monolayers than in EHS): increased in a concentration-dependent manner
change in APD80, EHS [3, 6]: increased APD80
change in CV, EHS ([3]; BaCl2 up to 150 μM, PCL 1000 ms, statistically significant): decreased CV
change in APD80, monolayers (hiPSC-CM monolayers [4]; [6]): increased APD80
change in CV, monolayers (hiPSC-CM monolayers [4]; BaCl2 up to 150 μM, PCL 1000 ms, did not reach statistical significance): decreased CV

COC(=O)C1=C(C)NC(C)=C([N+](=O)[O-])C1c1ccccc1C(F)(F)F (centres unmarked) [Bay K 8644]
change in CV, EHS ([3]; Bay K 8644 0.3 μM to 100 μM, concentration-dependent, n=3): decreased CV
change in APD, EHS ([3]; Bay K 8644 0.3 μM to 100 μM, paced at 700 ms, concentration-dependent, n=3): increased APD
maximum capture rate, EHS ([3]; Bay K 8644, n=3): decreased the maximum capture rate
change in APD80 compared to baseline, d201 EHS [3, 7]: decreased APD80
change in conduction velocity compared to baseline, d201 EHS [3, 7]: slowed conduction velocity

CC(C)NCC(O)c1ccc(O)c(O)c1 (centres unmarked) [isoproterenol]
area change during contraction relative to baseline ([5]; 1 μM isoproterenol, PCL 666 ms (1.5 Hz), n=8): 1.5±0.6 fold
inotropic response ([5]; EHS): positive inotropic response
area change during contraction relative to baseline after washout of the drug ([5]; after washout of 1 μM isoproterenol, PCL 666 ms, n=8): 1.1±0.4 times the baseline value
spontaneous rate from contraction video (GRIDS), monolayers (monolayers of hiPSC-CMs; isoproterenol 0 to 10 μM, no pacing or 2000 ms pacing): increased the spontaneous rate of the monolayers in a dose-dependent manner

CC1(C)Oc2ccc(C#N)cc2C(N2CCCC2=O)C1O (centres unmarked) [cromakalim]
change in APD80 compared to baseline, d201 EHS ([3]; 1 μM cromakalim): decreased APD80
change in conduction velocity compared to baseline, d201 EHS ([3]; 1 μM cromakalim): slowed conduction velocity

CCS(=O)(=O)N(C)[C@H]1c2cc(C#N)ccc2OC(C)(C)[C@@H]1O (racemic) [chromanol 293B]
pace-capture (GRIDS), EHS [1, 8]: could be pace-captured at all PCLs from 2000 ms down to 500 ms
pace-capture (GRIDS), monolayers (hiPSC-CM monolayers [2]; [8]): could be pace-captured at all PCLs from 2000 ms down to 500 ms
fraction of monolayers exhibiting spontaneous activity when no pacing was applied (hiPSC-CM monolayers [2]; chromanol 293B, concentrations up to 60 μM): non-zero and constant at all concentrations except for 5 μM, when it was zero, and 60 μM, when all monolayers exhibited spontaneous activity
change in APD80, EHS [3, 9]: no effect
change in CV, EHS [3, 9]: no effect
change in APD80, monolayers (hiPSC-CM monolayers [4]; [9]): no effect
change in CV, monolayers (hiPSC-CM monolayers [4]; [9]): no effect

Cc1cccc(CCN2CCC(C(=O)c3ccc(NS(C)(=O)=O)cc3)CC2)n1 [E-4031]
sensitivity of pace-capture (GRIDS), EHS compared with monolayers ([1]; E-4031 greater than 50 nM (tested 1 nM to 10 μM), rapid pacing): lower sensitivity of EHS to E-4031
loss of capture during pacing (GRIDS), monolayers (hiPSC-CM monolayers [2]; E-4031 greater than 50 nM (tested 1 nM to 10 μM), increasingly shorter PCLs): a greater fraction of monolayers than EHS lost capture
change in APD80, EHS [3, 10]: prolonged APD80
change in CV, EHS [3, 10]: slowed CV
change in APD80, monolayers (hiPSC-CM monolayers [4]; [10]): prolonged APD80
change in CV, monolayers (hiPSC-CM monolayers [4]; [10]): slowed CV
pace-capture from contraction video (GRIDS), monolayers (monolayers of hiPSC-CMs; E-4031 0 to 10 μM, PCL 2000 ms to 500 ms, more pronounced at higher doses): began to lose capture as the pacing rate was increased
